Assay results: US20210177722A1, “Phytic Acid Ester Derivative” (NATIONAL UNIVERSITY CORPORATION KUMAMOTO UNIVERSITY, priority 2018, published 2021)

What was measured:
HeLa cell = test: Quantitative determination of IP6 in cell (LC/MS of IP6 methyl ester); format: cell-based; settings: HeLa cells, 10 μM, 30 minutes
Method: In this example, incorporation of Pro-IP6 into a HeLa cell was quantitatively determined.
HeLa cells (5×10^5 cells/well, culture fluid: 1 mL) were seeded in a 3.5 cm dish to be cultured for 24 hours. Thereafter, DMSO (1%, Fujifilm Wako Pure Chemical Corporation), an aqueous solution (1%) of IP6 (final concentration: 10 μM, Sigma Aldrich), or a DMSO solution (1%) of Pro-IP6 (final concentration: 10 μM) synthesized in Example 1 was added thereto, and the resultant was cultured for another 30 minutes. HeLa cells were cultured with neither IP6 nor Pro-IP6 added, followed by adding the same amount of DMSO thereto, and the resultant was used as a negative control.
Thereafter, the resultant was washed with 1× PBS (−) once, and the resultant cells were scraped with a cell scraper, transferred to a 1.5 mL tube, and washed with 1× PBS (−) three times. To the thus obtained precipitate, 350 μl of MeOH (Fujifilm Wako Pure Chemical Corporation) and 1% NP-40 (Nacalai Tesque, Inc.) were added, followed by sonication (10 minutes). After equilibrating a column (Oasis WAX 1cc, Waters) with MeOH (1 mL) and H2O (1 mL), a disrupted cell extract was added thereto. Thereafter, the column was washed with 50% MeOH (1 mL), and eluted with 50% MeOH (200 μL×2) containing 2 mol/L of HCl (Fujifilm Wako Pure Chemical Corporation). The thus obtained eluate was concentrated, and dissolved in MeOH (50 μL), and trimethylsilyldiazomethane (200 μl, Tokyo Chemical Industry Co., Ltd.) was added thereto, followed by stirring at 50° C. for 1 hour under argon atmosphere. The reaction was stopped by adding H2O (100 μL). Through a reaction of trimethylsilyidiazomethane with IP6, IP6 methyl ester is obtained.
The thus obtained sample (IP6 methyl ester) was measured by LC/MS [column: MastroC18 2.1 mm×100 mm, […] (Shimadzu GLC Ltd.), mobile phase: 0.1% formic acid solution (Fujifilm Wako Pure Chemical Corporation), acetonitrile (Fujifilm Wako Pure Chemical Corporation)] [LC:LC-20AD (Shimadzu), MS: amaZon speed (BRUKER)].

[1] = tested on: MT-2 cell (HTLV transformed human T cell leukemia cell); test: MTT assay, MT-2 cell; format: cell-based; settings: 1 μM or 10 μM, 8 hours or 24 hours
Method: (§1) In this example, the cytotoxic effect of Pro-IP6 on four types of blood cancer cell lines and a cell derived from a healthy person was examined by MTT assay. […] It is possible to check viability of cultured cells by MTT assay. Cancer cell lines (1.74×10^4 cells/well, culture fluid: 200 μL) • MT-2 cell (HTLV transformed human T cell leukemia cell) • […] cell (human T-lymphoblastoid cell) • Jurkat cell (human T-lymphocyte cell) • K562 cell (chronic myelogenous leukemia cell) Each of the above-described types of cells was seeded in a 96-well plate, and was cultured for 8 hours for each of the various cancer cell lines and for 16 hours for PMBC. Thereafter, DMSO (1%, Fujifilm Wako Pure Chemical Corporation), an aqueous solution (1%) of IP6 (final concentration: 1 μM or 10 μM, Sigma Aldrich), or a DMSO solution (1%) of Pro-IP6 (final concentration: 1 μM or 10 μM) was added thereto, followed by culturing for 8 hours or 24 hours. An MTT reagent (Dojindo Laboratories, 1.1 mg/mL) was added in an amount of 50 μL per well, and the resultant was cultured for another 4 hours. The thus precipitated crystal was collected, a supernatant was removed, and 100 μL of DMSO was added thereto to completely dissolve. The resultant solution was measured for an absorbance (550 nm).

[2] = tested on: M8166 cell (human T-lymphoblastoid cell); test: MTT assay, M8166 cell; format: cell-based; settings: M8166 cell, 1 μM or 10 μM, 8 hours or 24 hours
Method: as §1

[3] = tested on: Jurkat cell (human T-lymphocyte cell); test: MTT assay, Jurkat cell; format: cell-based; settings: Jurkat cell, 1 μM or 10 μM, 8 hours or 24 hours
Method: as §1

[4] = tested on: K562 cell (chronic myelogenous leukemia cell); test: MTT assay, K562 cell; format: cell-based; settings: 1 μM or 10 μM, 8 hours or 24 hours
Method: as §1

[5] = tested on: S1T cell (ATL cell line) tumor; test: Effect on HTLV-1 infected cell-transplanted mouse (ATL model); format: in vivo; settings: day 28 after transplantation, 7.1 mg/kg per day intraperitoneally for 28 days, NSG mice with S1T cells
Text: In this example, the in vivo effect of Pro-IP6 on an HTLV-1 infected cell-transplanted mouse was checked. HTLV-1 (human T cell leukemia virus 1) mainly infects CD4-positive T lymphocyte, and when the infected cell cancerates, refractory malignant tumor, adult T-cell leukemia (ATL) is caused. In this example, S1T cell, that is, one of ATL cell lines, was used.
5-Week-old female NSG mice (NOD. Cg-Prkdc scid I12rg tm1Wjl/SzJ, Charles River Laboratories Japan, Inc.) were used. Five mice each in each of two cages, namely, ten mice in total, were raised with sterilized bedding (Pepar Clean: Japan SLC, Inc.) placed in a sterilized cage (Clea Japan, Inc.). […]
The control group was dosed with DMSO, and the IP6 administration group and the pro-IP6 administration group were intraperitoneally dosed respectively with IP6 in an amount of 7.1 mg/kg and pro-IP6 in an amount of 20 mg/kg. The mice were dosed continuously for 28 days after the day of the cell transplantation, and the weight and the tumor volume of each mouse were measured every day. The tumor volume was defined as (shorter diameter in mm)^2×(longer diameter in mm)×0.5, and the shorter diameter and the longer diameter were measured with a caliper. […] Subsequently, the tumor was totally removed, and the tumor volume and the tumor weight of each tumor were measured.

`O=P(O)(O)O[C@H]1[C@H](OP(=O)(O)O)[C@@H](OP(=O)(O)O)[C@H](OP(=O)(O)O)[C@@H](OP(=O)(O)O)[C@H]1OP(=O)(O)O` [IP6, myo-inostiol-1,2,3,4,5,6-hexaphosphate, reference compound] was tested, and the “incorporation into HeLa cell (IP6 methyl ester by LC/MS vs negative control)” value (HeLa cell) was “substantially the same as that of the negative control”, the cytotoxic effect [1] was “minimally exhibited the effect” and the cytotoxic effect [2] was “minimally exhibited the effect”. The cytotoxic effect [3] was “minimally exhibited the effect”, the cytotoxic effect [4] was “minimally exhibited the effect” and the “tumor volume compared with that of the control group” value [5] was “not significantly different”.
